Earlier results in patent US20040116403A1, “Superoxide dismutase mimics for the treatment of ocular disorders and diseases” (priority 2002, published 2004).

What was measured:
IL-6 and MIP-2 = conditions: rat stroke model; administration after induction of cerebral ischemia
[1] = rat stroke model; given either before or after induction of cerebral ischemia

For `CCn1cc[n+](CC)c1C1=C2C=CC3=[N+]2[Mn]24[n]5c1ccc5C(c1n(CC)cc[n+]1CC)=C1C=CC(=[N+]12)C(c1n(CC)cc[n+]1CC)=c1ccc([n]14)=C3c1n(CC)cc[n+]1CC` [Compound 1], the “expression of pro-inflammatory proteins such as IL-6 and MIP-2” value (IL-6 and MIP-2) is listed as “attenuation of the increased expression of pro-inflammatory proteins”.

For `CC[n+]1ccccc1C1=C2C=CC3=[N+]2[Mn]24[n]5c1ccc5C(c1cccc[n+]1CC)=C1C=CC(=[N+]12)C(c1cccc[n+]1CC)=c1ccc([n]14)=C3c1cccc[n+]1CC` [Compound 2], the infarct volume [1] is given as “reduces infarct volume”.
